Experimental data taken from patent US20240325460A1, “MOLECULAR BACTE[…] CONTROL SKIN ENZYMATIC ACTIVITY” (The Regents of the University of California, priority 2017, published 2024).

Tests used:
[1] = tested on: normal human epidermal keratinocytes (NHEKs); experiment: Total protease activity of NHEK conditioned medium (BODIPY FL casein); type: cell-based; conditions: 800 μg ml applied to 24-hour posttreatment conditioned medium
Procedure: (§1) Culture of primary human keratinocytes. Neonatal NHEKs (ThermoFisher Scientific, Waltham, MA) were cultured in EpiLife medium (ThermoFisher Scientific) supplemented with 1× EpiLife defined growth supplement (ThermoFisher Scientific), 60 μM CaCl2, and 1× antibiotic-antimycotic (PSA; 100 U/ml penicillin, […] streptomycin, 250 ng/ml amphotericin B; ThermoFisher Scientific) at 37° C., 5% CO2. For experiments, NHEKs were grown to 70% confluency followed by differentiation in high calcium EpiLife medium (2 mM CaCl2) for 48 hours before treatment with bacteria sterile filtered supernatant. […] For bacterial supernatant treatments, differentiated NHEKs were treated with sterile filtered bacterial supernatant at 5% by volume to EpiLife medium. NHEKs were only used for experiments between passages 3 and 5.
Protease activity assays. […] Relative fluorescent intensity was analyzed with a SpectraMAX Gemini EM fluorometer (ThermoFisher Scientific) at RTwith readings every 2 hours for 24 hours. BODIPY FL casein plates were read at ex: 485 nm and em: 530 nm. Elastin-like and MMP substrate plates were read at ex: 485 nm and em: 515 nm. Trypsin-like substrate plates were read at ex: 354 nm and em: 435 nm.

[2] = tested on: normal human epidermal keratinocytes (NHEKs); experiment: Trypsin-like activity of NHEK conditioned medium (Boc-Val-Pro-Arg-AMC substrate); type: cell-based
Procedure: as §1
Protease activity assays. […] Relative fluorescent intensity was analyzed with a SpectraMAX Gemini EM fluorometer (ThermoFisher Scientific) at RTwith readings every 2 hours for 24 hours. BODIPY FL casein plates were read at ex: 485 nm and em: 530 nm. Elastin-like and MMP substrate plates were read at ex: 485 nm and em: 515 nm. Trypsin-like substrate plates were read at ex: 354 nm and em: 435 nm. […]
Trypsin Activity Analysis. […] Relative fluorescent intensity (ex: 354 nm, em: 435 nm) was analyzed with a SpectraMAX Gemini EM fluorometer (Thermo Fisher Scientific). […]

[3] = tested on: KLK mRNA expression in NHEKs; experiment: KLK mRNA expression in NHEKs by quantitative real-time PCR; type: cell-based, human; conditions: synthetic peptide, normalized to GAPDH
Procedure: Quantitative real-time PCR. RNA was isolated from NHEKs using Purelink RNA isolation columns (ThermoFisher Scientific) according to the manufacturer's instructions. RNA was quantified using a Nanodrop spectrophotometer (ThermoFisher Scientific), and 500 ng of RNA was reverse-transcribed using the iScript cDNA synthesis kit (Bio-Rad, Irvine, CA). Quantitative real-time PCR reactions were ran on a CFX96 real-time detection system (Bio-Rad) using gene-specific primers and TaqMan probes (ThermoFisher Scientific).
RNA isolation and quantitative real-time PCR. All RNA was isolated using the Purelink RNA isolation kit according to manufacturer's instructions (Thermo Fisher Scientific). For NHEKs, 350 μL RNA lysis buffer (with 1% β-mercaptoethanol) was added directly to cells. For mouse tissue, 0.5 cm^2 full thickness skin was bead beat (2× 30 sec, 2.0 mm zirconia bead) in 750 μL of RNA lysis buffer with 5 minutes on ice in between. Tissue was than centrifuged (10 min, 13,000 RPM, 4° C.), followed by adding 350 μL of clear lysate to 70% EtOH and column based isolation of RNA. […] After RNA isolation, samples were quantified with a Nanodrop (ThermoFisher Scientific), and 500 ng of RNA was reverse-transcribed using the iScript cDNA synthesis kit (Bio-Rad). qPCR reactions were ran on a CFX96 Real-Time Detection System (Bio-Rad). […]

[4] = tested on: normal human epidermal keratinocytes (NHEKs); experiment: RNA-Seq transcriptional profiling of NHEKs; type: cell-based; conditions: synthetic peptide, 24 h
Procedure: RNA sequencing. RNA was submitted to the University of California, San Diego (UCSD) genomic core facility for library preparation and sequencing. TruSeq mRNA Library Prep Kit (Illumina) was used for library prep followed by high-throughput sequencing on a HiSeq 2500 sequencer (Illumina). Data was analyzed using Partek Flow and Partek Genomics Suite software and gene ontology analysis was performed using the PANTHER classification system (http[://]pantherdb.org).

Substance	effect of serine protease inhibitor on S. aureus-induced total protease activity [1]	dose and time dependence of trypsin activity stimulation in NHEKs ([2]; synthetic peptide)	trypsin activity in NHEKs treated with synthetic PSM peptide ([2]; synthetic peptide added to NHEKs for up to 24 h)	dose and time dependence of KLK6 mRNA expression in NHEKs [3]	transcriptional profile (RNA-Seq) of NHEKs [4]
aprotinin	confirmed that this activity was due to serine proteases	–	–	–	–
f-MEFVAKLFKFFKDLLGKFLGNN [PSMα3]	–	dose and time dependent manner	strongest PSMα trypsin activity inducers	dose and time dependent manner	broad effect on expression of genes related to the skin barrier
